From patent publication US20240034736A1, “HSD17B13 INHIBITORS AND USES THEREOF” (FL2022-001, Inc., priority 2020, published 2024)

The molecules below were run against Recombinant human HSD17B13 enzyme (Homo sapiens (Human), UniProt Q7Z5P4) (assay: HSD17b13 NAD(P)H-Glo Biochemical Assay). Details: 50 uM estradiol, 1 mM NAD+; read-out: HSD17β13 IC50.
Procedure, shortened: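 Luminescent NAD(P)H-Glo detection (1 h, RT) quantified cofactor reduction after a 3 h, 37° C reaction of human HSD17B13 with estradiol (50 uM final) and NAD+ (1 mM final). Compounds were first pre-incubated 20 min at RT with enzyme in Tris pH 7.4 buffer containing Tween-20 and BSA.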

Recombinant human HSD17B13 enzyme, sequence (Q7Z5P4 20-300): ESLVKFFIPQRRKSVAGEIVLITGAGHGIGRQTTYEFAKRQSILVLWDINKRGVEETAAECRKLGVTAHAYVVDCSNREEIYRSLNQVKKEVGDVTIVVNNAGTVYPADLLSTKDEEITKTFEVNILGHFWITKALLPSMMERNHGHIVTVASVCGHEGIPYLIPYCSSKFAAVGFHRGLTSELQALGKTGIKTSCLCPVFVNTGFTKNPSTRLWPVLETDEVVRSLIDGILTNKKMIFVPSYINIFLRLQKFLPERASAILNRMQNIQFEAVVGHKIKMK

Q: With CS(=O)(=O)N1CCC(c2cc3cnn(-c4cc(O)c(F)c(F)c4)c3cc2Cl)CC1 [Compound 27.01, 5-(6-Chloro-5-(1-(methyl-sulfonyl)piperidin-4-yl)-1H-indazol-1-yl)-2,3-difluoro-phenol] as the molecule, how does the IC50 read?
A: The IC50 was 1000 to 30000 nM.

Q: With Cc1ccc(-c2ccc3c(cnn3-c3cc(O)c(F)c(F)c3)c2)cn1 [Compound 7.02, 2,3-Difluoro-5-(5-(6-methylpyridin-3-yl)-1H-indazol-1-yl)phenol] as the molecule, how does the IC50 read?
A: The IC50 was 100 to 1000 nM.

Q: For CN(C)C(=O)c1nn(-c2cc(C(F)(F)F)c(F)c(O)c2F)c2ccc(N(C)C3CCOCC3)cc12 [Compound 19.113, 1-(2,4-Difluoro-3-hydroxy-5-(trifluoromethyl)phenyl)-N,N-dimethyl-5-(methyl(tetrahydro-2H-pyran-4-yl)amino)-1H-indazole-3-carboxamide], which IC50 is on record?
A: Its IC50 is 1000 to 30000 nM.

Q: How did the IC50 turn out when CS(=O)(=O)N1CCN(c2cc3cn(-c4ccc(C(F)(F)F)c(O)c4F)nc3cn2)CC1 [Compound 19.26, 2-Fluoro-3-(5-(4-(methylsulfonyl)piperazin-1-yl)-2H-pyrazolo[3,4-c]pyridine-2-yl)-6-(trifluoromethyl)phenol] was run?
A: Its IC50 is 1000 to 30000 nM.

Q: How did the IC50 turn out when COc1ccc(-c2ccc3c(cnn3-c3ccc(F)c(O)c3)c2)cc1Cl [Compound 2, 5-(5-(3-Chloro-4-methoxyphenyl)-1H-indazol-1-yl)-2-fluorophenol] was run?
A: Its IC50 is 100 to 1000 nM.

Q: With Cc1c(N2CCN(S(C)(=O)=O)CC2)ccc2c1cnn2-c1cc(O)c(F)c(F)c1 [Compound 21.14, 2,3-Difluoro-5-(4-methyl-5-(4-(methylsulfonyl)piperazin-1-yl)-1H-indazol-1-yl)phenol] as the molecule, how does the IC50 read?
A: The IC50 was 1000 to 30000 nM.

Q: How did the IC50 turn out when CS(=O)(=O)N1CCN(c2ncc3c(cnn3-c3cc(O)c(F)c(C(F)(F)F)c3)n2)CC1 [Compound 21.52, 2-Fluoro-5-(5-(4-(methyl-sulfonyl)piperazin-1-yl)-1H-pyrazolo[4,3-d]pyrimidin-1-yl)-3-(trifluoromethyl)phenol] was run?
A: The IC50 was 100 to 1000 nM.

Q: With CC1(C)CN(S(C)(=O)=O)CCN1c1cc2cnn(-c3cc(O)c(F)c(C(F)(F)F)c3)c2cn1 [Compound 19.04, 5-(5-(2,2-Dimethyl-4-(methylsulfonyl)piperazin-1-yl)-1H-pyrazolo[3,4-c]pyridine-1-yl)-2-fluoro-3-(trifluoromethyl)phenol] as the molecule, how does the IC50 read?
A: The IC50 was 100 to 1000 nM.

Q: For Oc1cc(-c2noc3cc(-c4ccc(O)c(Cl)c4)ccc23)ccc1F [Compound 5.30, 2-Chloro-4-(3-(4-fluoro-3-hydroxyphenyl)benzo[d]isoxazol-6-yl)phenol], which IC50 is on record?
A: Its IC50 is 100 to 1000 nM.

Q: With Oc1cc(-n2nc(Cl)c3cc(-c4ccc(O)c(Cl)c4)ccc32)ccc1F [Compound 4.14, 2-Chloro-4-(3-chloro-1-(4-fluoro-3-hydroxyphenyl)-1H-indazol-5-yl)phenol] as the molecule, how does the IC50 read?
A: The IC50 was 100 to 1000 nM.

Q: How did the IC50 turn out when CS(=O)(=O)Nc1ccc(-c2ccc3c(cnn3-c3ccc(F)c(O)c3)c2)cc1 [Compound 4.02, N-(4-(1-(4-Fluoro-3-hydroxyphenyl)-1H-indazol-5-yl)phenyl)methanesulfonamide] was run?
A: The IC50 was 100 to 1000 nM.

Q: For Cc1nn(-c2cc(C(F)(F)F)c(F)c(O)c2F)c2cnc(N3CCN(S(=O)(=O)c4ccccc4)CC3)cc12 [Compound 19.56, 2,6-Difluoro-3-(3-methyl-5-(4-(phenylsulfonyl)piperazin-1-yl)-1H-pyrazolo[3,4-c]pyridine-1-yl)-5-(trifluoromethyl)phenol], which IC50 is on record?
A: The IC50 was < 100 nM.

Q: With CC(=O)N1CC(Oc2ccc3c(cnn3-c3cc(O)c(F)c(F)c3)c2)C1 [Compound 24.01, 1-(3-((1-(3,4-Difluoro-5-hydroxyphenyl)-1H-indazol-5-yl)oxy)azetidin-1-yl)ethan-1-one] as the molecule, how does the IC50 read?
A: Its IC50 is 100 to 1000 nM.

Q: How did the IC50 turn out when Cc1nn(-c2cc(C(F)(F)F)c(F)c(O)c2F)c2cnc(N3CCN(c4ccccc4)CC3)cc12 [Compound 19.63, 2,6-Difluoro-3-(3-methyl-5-(4-phenylpiperazin-1-yl)-1H-pyrazolo[3,4-c]pyridin-1-yl)-5-(trifluoromethyl)phenol] was run?
A: The IC50 was 100 to 1000 nM.

Q: Which IC50 does the source give for CNS(=O)(=O)C1CN(c2ccc3c(cnn3-c3cc(O)c(F)c(F)c3)c2)C1 [Compound 21.35, 1-(1-(3,4-Difluoro-5-hydroxy-phenyl)-1H-indazol-5-yl)-N-methylazetidine-3-sulfonamide] here?
A: The IC50 was 1000 to 30000 nM.

Q: CS(=O)(=O)N1CCN(c2ccc3c(cnn3-c3cc(O)c(F)c(F)c3)c2Cl)CC1 [Compound 21.15, 5-(4-Chloro-5-(4-(methyl-sulfonyl)piperazin-1-yl)-1H-indazol-1-yl)-2,3-difluoro-phenol] was tested. Which IC50 did it give?
A: The IC50 was 1000 to 30000 nM.

Q: How did the IC50 turn out when N#Cc1nn(-c2ccc(F)c(O)c2)c2ccc(-c3ccc(O)c(Cl)c3)cc12 [Compound 4.15, 5-(3-Chloro-4-hydroxyphenyl)-1-(4-fluoro-3-hydroxyphenyl)-1H-indazole-3-carbonitrile] was run?
A: Its IC50 is 100 to 1000 nM.

Q: With CS(=O)(=O)N1CCN(c2cc3cnn(-c4cc(O)c(F)c(C(F)(F)F)c4)c3nn2)CC1 [Compound 28.08, 2-Fluoro-5-(5-(4-(methyl-sulfonyl)piperazin-1-yl)-1H-pyrazolo[3,4-c]pyridazin-1-yl)-3-(trifluoromethyl)phenol] as the molecule, how does the IC50 read?
A: Its IC50 is 1000 to 30000 nM.

Q: Which IC50 does the source give for CS(=O)(=O)N1CCN(c2cc3cnn(-c4ncc(Cl)c(O)c4F)c3cn2)CC1 [Compound 19.31, 5-Chloro-3-fluoro-2-(5-(4-(methylsulfonyl)piperazin-1-yl)-1H-pyrazolo[3,4-c]pyridine-1-yl)pyridine-4-ol] here?
A: The IC50 was 1000 to 30000 nM.

Q: Which IC50 does the source give for O=C(O)Cc1ccc(-c2ccc3c(cnn3-c3ccc(F)c(O)c3)c2)cc1 [Compound 2.01, 2-(4-(1-(4-Fluoro-3-hydroxyphenyl)-1H-indazol-5-yl)phenyl)acetic acid] here?
A: Its IC50 is 1000 to 30000 nM.

Q: With CNC(=O)N1CCC(c2ccc3c(cnn3-c3ccc(F)c(O)c3)c2)CC1 [Compound 26.02, 4-(1-(4-Fluoro-3-hydroxy-phenyl)-1H-indazol-5-yl)-N-methylpiperidine-1-carboxamide] as the molecule, how does the IC50 read?
A: The IC50 was 100 to 1000 nM.

Q: Cc1nn(-c2cc(C(F)(F)F)c(F)c(O)c2F)c2cnc(N3CCN(S(C)(=O)=O)C4(CCCCC4)C3)cc12 [Compound 19.105, 2,6-Difluoro-3-(3-methyl-5-(1-(methylsulfonyl)-1,4-diazaspiro[5.5]undecan-4-yl)-1H-pyrazolo[3,4-c]pyridin-1-yl)-5-(trifluoromethyl)phenol] was tested. Which IC50 did it give?
A: Its IC50 is < 100 nM.

Q: How did the IC50 turn out when Oc1ccc(-c2ccc3c(cnn3-c3ccc(F)c(O)c3)c2)c(C(F)(F)F)c1 [Compound 5.16, 2-Fluoro-5-(5-(4-hydroxy-2-(trifluoromethyl)phenyl)-1H-indazol-1-yl)phenol] was run?
A: The IC50 was 100 to 1000 nM.

Q: Which IC50 does the source give for Oc1cc(-n2ncc3cc(-c4cncc(Cl)c4)ccc32)cc(F)c1F [Compound 7, 5-(5-(5-Chloropyridin-3-yl)-1H-indazol-1-yl)-2,3-difluorophenol] here?
A: The IC50 was 100 to 1000 nM.

Q: With CS(=O)(=O)N1CCN(c2cc3cnn(-c4cc(O)c(F)c(F)c4)c3cc2C(F)(F)F)CC1 [Compound 21.19, 2,3-Difluoro-5-(5-(4-(methyl-sulfonyl)piperazin-1-yl)-6-(trifluoromethyl)-1H-indazol-1-yl)phenol] as the molecule, how does the IC50 read?
A: Its IC50 is 1000 to 30000 nM.

Q: Which IC50 does the source give for Cc1nn(-c2cc(C(F)(F)F)c(F)c(O)c2F)c2cnc(N3CCOC4(CCC4)C3)nc12 [Compound 19.82, 2,6-Difluoro-3-(3-methyl-5-(5-oxa-8-azaspiro[3.5]nonan-8-yl)-1H-pyrazolo[4,3-d]pyrimidin-1-yl)-5-(trifluoromethyl)phenol] here?
A: Its IC50 is < 100 nM.

Q: How did the IC50 turn out when C[C@@H]1COCCN1c1cc2cnn(-c3cc(O)c(F)c(C(F)(F)F)c3)c2cn1 [Compound 21.55, (R)-2-Fluoro-5-(5-(3-methyl-morpholino)-1H-pyrazolo[3,4-c]pyridin-1-yl)-3-(trifluoro-methyl)phenol] was run?
A: Its IC50 is 100 to 1000 nM.

Q: How did the IC50 turn out when Oc1cnc(-c2ccc3c(cnn3-c3cc(O)c(F)c(F)c3)c2)c(Cl)c1 [Compound 16.01, 5-Chloro-6-(1-(3,4-difluoro-5-hydroxyphenyl)-1H-indazol-5-yl)pyridine-3-ol] was run?
A: The IC50 was 100 to 1000 nM.

Q: For O=S1(=O)CCN(c2ccc3c(cnn3-c3cc(O)c(F)c(F)c3)c2)CC1 [Compound 21.08, 4-(1-(3,4-Difluoro-5-hydroxy-phenyl)-1H-indazol-5-yl)-thiomorpholine 1,1-dioxide], which IC50 is on record?
A: Its IC50 is 1000 to 30000 nM.

Q: CS(=O)(=O)N1CCN(c2ccc3nn(-c4cc(C(F)(F)F)cc(O)n4)cc3c2)CC1 [Compound 31.01, 6-(5-(4-(Methylsulfonyl)-piperazin-1-yl)-2H-indazol-2-yl)-4-(trifluoromethyl)-pyridin-2-ol] was tested. Which IC50 did it give?
A: The IC50 was 1000 to 30000 nM.

Q: How did the IC50 turn out when Cc1nn(-c2ccc(F)c(O)c2)c2ccc(-c3ccc(O)c(Cl)c3)cc12 [Compound 4.05, 2-Chloro-4-(1-(4-fluoro-3-hydroxyphenyl)-3-methyl-1H-indazol-5-yl)phenol] was run?
A: Its IC50 is 100 to 1000 nM.

Q: Cc1nn(-c2cc(C(F)(F)F)c(F)c(O)c2F)c2cnc(N(C)C3CCOCC3)c(F)c12 [Compound 19.102, 2,6-Difluoro-3-(4-fluoro-3-methyl-5-(methyl(tetrahydro-2H-pyran-4-yl)amino)-1H-pyrazolo[3,4-c]pyridin-1-yl)-5-(trifluoromethyl)phenol] was tested. Which IC50 did it give?
A: The IC50 was 100 to 1000 nM.

Q: For Cc1nn(-c2ccc(F)c(O)c2)c2cc(F)c(N3CCN(S(C)(=O)=O)CC34CC4)cc12 [Compound 19.103, 2-Fluoro-5-(6-fluoro-3-methyl-5-(7-(methylsulfonyl)-4,7-diazaspiro[2.5]octan-4-yl)-1H-indazol-1-yl)phenol], which IC50 is on record?
A: Its IC50 is 100 to 1000 nM.

Q: With CS(=O)(=O)N1CCC(c2ccc3c(cnn3-c3cc(O)c(F)c(F)c3)c2)CC1 [Compound 27, 2,3-Difluoro-5-(5-(1-(methylsulfonyl)piperidin-4-yl)-1H-indazol-1-yl)phenol] as the molecule, how does the IC50 read?
A: Its IC50 is < 100 nM.

Q: Which IC50 does the source give for Cc1nn(-c2cc(C(F)(F)F)c(F)c(O)c2F)c2cnc(N3CCC(OCC4CC4)CC3)cc12 [Compound 19.59, 3-(5-(4-(Cyclopropylmethoxy)piperidin-1-yl)-3-methyl-1H-pyrazolo[3,4-c]pyridine-1-yl)-2,6-difluoro-5-(trifluoromethyl)phenol] here?
A: The IC50 was 100 to 1000 nM.

Same assay, conditions: read-out: HSD17β13 inhibition at 10 uM

Q: How did the inhibition at 10 µM turn out when CNC(=O)c1cc(-n2nc(C)c3cc(N4CCOCC45CC5)ncc32)cc(O)c1F [Compound 19.122, 2-Fluoro-3-hydroxy-N-methyl-5-(3-methyl-5-(7-oxa-4-azaspiro[2.5]octan-4-yl)-1H-pyrazolo[3,4-c]pyridin-1-yl)benzamide] was run?
A: Its inhibition at 10 µM is 20%.
